Data on five compounds can be found in article PMC6769917, “Glycan Binding Profiling of Jacalin-Related Lectins from the Pteria Penguin Pearl Shell” (International Journal of Molecular Sciences, 2019).

In this experiment the target is T1, PPL4 (Pteria penguin, UniProt B6F0T8+B6F0T9).
T1 construct: gene PPL4-a; native, purified from mantle secretory fluid; mature 148 residues per subunit, 16 kDa; disulfide-linked heterodimer 32 kDa (head-to-head, N-terminal bond); N-termini […]; (alpha), […]; (beta)
Nature of the experiment: hemagglutination inhibition, rabbit erythrocytes, purified lectin. In kind it is cell-based. The settings on record: 0.15 M NaCl; hemagglutination titer 2^−3; 2% rabbit erythrocytes. From the text:
hemagglutination inhibition, rabbit erythrocytes, purified lectin on PPL4

Bounds are passed on as bounds.

T1 sequence (B6F0T8 entry or part of it): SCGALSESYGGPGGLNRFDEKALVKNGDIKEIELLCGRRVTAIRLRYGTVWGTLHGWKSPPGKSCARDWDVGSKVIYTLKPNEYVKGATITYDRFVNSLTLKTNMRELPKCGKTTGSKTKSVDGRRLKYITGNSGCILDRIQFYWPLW
T1 sequence (B6F0T9 entry or part of it): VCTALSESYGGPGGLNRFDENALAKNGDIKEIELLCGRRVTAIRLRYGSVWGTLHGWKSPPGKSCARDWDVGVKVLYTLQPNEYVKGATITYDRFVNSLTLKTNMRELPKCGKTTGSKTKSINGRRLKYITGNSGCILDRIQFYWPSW

The compound `OCC1(O)OC[C@@H](O)[C@@H](O)[C@@H]1O` (stereo partly drawn) [D-Fructose] yielded a PPL3 of 50 mM.

For the compound `OC[C@H]1O[C@H](OC[C@H]2OC(O)[C@H](O)[C@@H](O)[C@@H]2O)[C@H](O)[C@@H](O)[C@@H]1O` (some centres unmarked) [Isomaltose], the PPL4 is listed as more than 200 mM.

In the case of `OC[C@H]1O[C@H](O[C@H]2C(O)O[C@H](CO)[C@@H](O)[C@@H]2O)[C@H](O)[C@@H](O)[C@@H]1O` (some centres unmarked) [Kojibiose], the PPL4 was 100 mM.

The compound `CC(=O)N[C@H]1C(O)O[C@H](CO)[C@@H](O)[C@@H]1O` (stereo partly drawn) [N-Acetyl-D-glucosamine] yielded a PPL4 of 6.25 mM.

Regarding `OC[C@H]1O[C@H](O[C@H]2O[C@H](CO)[C@@H](O)[C@H](O)[C@H]2O)[C@H](O)[C@@H](O)[C@@H]1O` [Trehalose], the PPL4 is listed as 100 mM.
